# Measured values: the supplement of paper PMC10307832
# What was measured:
# Assay in all cases: relative viability (nuclei count vs DMSO), 5 days (fraction); higher = more cells survive
# Ponatinib + Tozasertib = compound: Cc1ccc(C(=O)Nc2ccc(CN3CCN(C)CC3)c(C(F)(F)F)c2)cc1C#Cc1cnc2cccnn12 [Ponatinib] + Cc1cc(Nc2cc(N3CCN(C)CC3)nc(Sc3ccc(NC(=O)C4CC4)cc3)n2)n[nH]1 [Tozasertib] (partner 0.1 µM)
# Summary of the method: (§1)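 Lung cancer cell lines in 1536-well plates were dosed by pin tool the day after seeding, either with one drug alone or with a fixed anchor-drug dose plus five library-drug doses (not always all listed) in √10 steps. After 5 days, cells were fixed and their nuclei stained in one step (final 0.05% Triton X-100, 1% formaldehyde, 1 ug/ml Hoechst), then counted on 4× images. Relative viability is the nuclei count in treated wells divided by that in vehicle wells. Values are medians of duplicate plates.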
# Pazopanib + Navitoclax = compound: Cc1ccc(Nc2nccc(N(C)c3ccc4c(C)n(C)nc4c3)n2)cc1S(N)(=O)=O [Pazopanib] + CC1(C)CCC(c2ccc(Cl)cc2)=C(CN2CCN(c3ccc(C(=O)NS(=O)(=O)c4ccc(N[C@H](CCN5CCOCC5)CSc5ccccc5)c(S(=O)(=O)C(F)(F)F)c4)cc3)CC2)C1 [Navitoclax] (partner 0.5 µM)
# Summary of the method: as §1
# Pazopanib + Crizotinib = compound: Cc1ccc(Nc2nccc(N(C)c3ccc4c(C)n(C)nc4c3)n2)cc1S(N)(=O)=O [Pazopanib] + C[C@@H](Oc1cc(-c2cnn(C3CCNCC3)c2)cnc1N)c1c(Cl)ccc(F)c1Cl [Crizotinib] (partner 1 µM)
# Summary of the method: as §1
# Pazopanib + Pemetrexed = compound: Cc1ccc(Nc2nccc(N(C)c3ccc4c(C)n(C)nc4c3)n2)cc1S(N)(=O)=O [Pazopanib] + Nc1nc2[nH]cc(CCc3ccc(C(=O)N[C@@H](CCC(=O)O)C(=O)O)cc3)c2c(=O)[nH]1 [Pemetrexed] (partner 0.2 µM)
# Summary of the method: as §1
Cell Line,relative viability (Ponatinib + Tozasertib; first compound 0.002 µM),relative viability (Ponatinib + Tozasertib; first compound 0.006325 µM),relative viability (Ponatinib + Tozasertib; first compound 0.06325 µM),relative viability (Ponatinib + Tozasertib; first compound 0.2 µM),relative viability (Pazopanib + Navitoclax; first compound 0.01 µM),relative viability (Pazopanib + Navitoclax; first compound 0.03162 µM),relative viability (Pazopanib + Navitoclax; first compound 0.1 µM),relative viability (Pazopanib + Navitoclax; first compound 0.3162 µM),relative viability (Pazopanib + Navitoclax; first compound 1 µM),relative viability (Pazopanib + Crizotinib; first compound 0.01 µM),relative viability (Pazopanib + Crizotinib; first compound 0.03162 µM),relative viability (Pazopanib + Crizotinib; first compound 0.1 µM),relative viability (Pazopanib + Crizotinib; first compound 0.3162 µM),relative viability (Pazopanib + Crizotinib; first compound 1 µM),relative viability (Pazopanib + Pemetrexed; first compound 0.01 µM),relative viability (Pazopanib + Pemetrexed; first compound 0.03162 µM),relative viability (Pazopanib + Pemetrexed; first compound 0.1 µM),relative viability (Pazopanib + Pemetrexed; first compound 0.3162 µM),relative viability (Pazopanib + Pemetrexed; first compound 1 µM)
RERF-LC-KJ,0.476,0.474,0.405,0.281,0.906,1.01,1.06,0.879,1.04,0.794,0.773,0.812,0.775,0.789,0.498,0.517,0.443,0.432,0.541
BEN,0.544,0.52,0.486,0.533,0.0655,0.0679,0.0737,0.0724,0.0586,0.737,1.05,0.814,0.904,0.787,0.67,0.803,0.706,0.8,0.834
NCI-H1666,0.707,0.627,0.669,0.548,1.06,0.975,0.926,1.22,1.01,1.09,1,0.875,1.09,1.27,0.932,0.834,0.92,0.72,0.847
LC-2-ad,0.458,0.455,0.431,0.397,0.411,0.48,0.588,0.485,0.335,0.483,0.462,0.467,0.423,0.467,0.292,0.281,0.274,0.311,0.275
SW 1573,0.202,0.16,0.162,0.176,1.16,1.06,1.02,1.2,1.28,0.813,0.878,0.974,0.836,0.757,0.831,0.899,0.792,0.857,0.861
ChaGo-K-1,0.234,0.213,0.177,0.209,0.935,1.07,0.997,0.792,1.06,1.18,1.19,0.997,1.23,1.06,0.267,0.256,0.268,0.257,0.252
COR-L 105,0.304,0.343,0.372,0.316,0.891,0.698,0.787,0.732,0.773,0.712,0.984,0.838,0.883,0.964,1.07,1.24,1.19,1.21,1.21
NCI-H1975,0.677,0.774,0.275,0.196,1,1.2,1.17,1.12,1.02,0.888,1.02,0.991,0.964,0.926,0.294,0.296,0.285,0.299,0.258
NCI-H1993,0.639,0.635,0.582,0.555,0.734,0.735,0.988,1.01,0.889,0.871,0.902,0.971,0.926,0.877,,0.588,0.639,0.549,0.554
SK-LU-1,0.349,0.419,0.321,0.218,0.828,0.898,0.994,0.964,0.749,0.952,1.02,1.14,0.976,0.852,0.926,1.01,1.05,0.994,0.911
NCI-H23,0.351,0.419,0.25,0.197,0.899,0.843,1.16,1.02,1.06,0.594,0.474,0.577,0.735,0.591,0.529,0.727,0.702,0.658,0.829
HCC-366,0.112,0.108,0.0686,0.0671,1.02,1.11,1.14,0.984,1.19,0.508,0.485,0.478,0.528,0.63,0.298,0.141,0.16,0.159,0.131
EMC-BAC-2,0.285,0.275,0.277,0.239,1.04,1.21,1.15,1.15,1.15,0.735,0.786,0.649,0.782,0.749,,0.456,0.384,0.434,0.425
NCI-H3122,0.43,0.421,0.382,0.359,1.09,1.05,1.05,1.08,1.13,0.263,0.247,0.273,0.278,0.348,0.207,0.188,0.188,0.191,0.212
SK-MES-1,0.828,0.909,0.964,0.842,1.29,1.32,1.42,1.3,1.15,0.93,1,1.01,1.01,0.98,0.91,0.981,0.961,0.924,0.985
NCI-H2170,0.755,0.674,0.651,0.665,0.519,0.586,0.752,0.542,0.631,1.21,1.32,1.26,1.15,1.14,0.258,0.307,0.264,0.277,0.258
EPLC-272H,0.246,0.394,0.365,0.307,1.09,1.09,1.21,1.16,1.1,0.771,1.11,1.07,0.885,1.03,0.313,0.461,0.318,0.332,0.353
